Reference: patent US20060074073A1, “Therapeutic combinations comprising poly (ADP-ribose) polymerases inhibitor” (AGOURON PHARMACEUTICALS, INC., priority 2004, published 2006)
Marks after values point to notes of the source that are not given here.

Experiments:
human H460 NSCLC cells = assay: In vitro chemosensitization of standard chemotherapeutic agents; format: cell-based
PARP = assay: Tumor PARP catalytic activity, 32P-NAD incorporation in SW620 tumor homogenates of treated animals; format: in vivo, mice; settings: temozolomide alone, oral gavage
Description: Tumours were excised and were snap frozen in liquid nitrogen and stored at −80° C. until homogenised for analysis. The specimen was defrosted on ice and the wet weight documented. The tissue was homogenised using a Pro 2000 instrument (Pro Scientific Inc, Monroe, Conn., USA) in 3 volumes (i.e. 1 mg plus 3 μl isotonic buffer −7 mM Hepes, 26 mM KCl, 0.1 mM dextran, 0.4 mM EGTA, 0.5 mM MgCl2, 45 mM sucrose, pH 7.8), giving a homogenate with an overall dilution of 1 in 4. The homogenate was kept on ice throughout the process, and homogenisation was performed in 10 second bursts to prevent undue warming of the sample. Prior to assay the samples were further diluted with isotonic buffer where necessary to give a final dilution of 1 in 40 for [^32P]NAD incorporation assay or 1 in 1000 for immunoblot aaasy.
Briefly, cells were suspended in hypotonic buffer (9 mM HEPES pH 7.8, 4.5% (v/v) dextran, 4.5 mM MgCl2 and 5 mM DTT) at 1.5×10^7/ml on ice for 30 minutes then 9 vol of isotonic buffer (40 mM HEPES pH 7.8, 130 mM KCl, 4% (v/v) dextran, 2 mM EGTA, 2.3 mM MgCl2, 225 mM sucrose and 2.5 mM DTT) was added. The reaction was started by adding 300 μl cells to 100 μl 300 μM NAD^+ containing [^32P]-NAD^+ (Amersham, UK), and terminated by the addition of 2 ml ice cold 10% (w/v) TCA+10% (w/v) sodium pyrophosphate. After 30 min on ice the precipitated ^32P—labelled ADP-ribose polymers were filtered on Whatman GC/C filters (Whatman Intemational Ltd, Kent, UK), washed 5 times with 1% (v/v) TCA/1% (v/v) sodium pyrophosphate, dried and counted. PARP inhibitory IC50 values were calculated from computer-fitted curves (GraphPad Software, Inc., San Diego, Calif.).
Tumour homogenates were assayed in a similar manner; however, the homogenisation process introduces sufficient DNA damage to maximally stimulate PARP activity and oligonucleotide was not therefore required. Results were expressed in terms of pmol PAR former per mg tumour.
Preparation of Tumour/Tissue Samples • 1. The frozen tumour samples are weighed. • 2. 3 volumes (i.e. 3 μl solution added for each 1 mg tissue) of isotonic buffer plus DTT is added to the tumour sample. This is stored on ice until and during homogenisation. • 3. The sample is homogenised on ice within a Class II cabinet for 10-second bursts until no detectable macroscopic pieces of tissue are visible. • 4. Sufficient volume of the homogenate is diluted 1 in 10 with isotonic buffer plus DTT to provide an overall dilution of 1 in 40 from the original sample. A final volume of 3 ml is sufficient for triplicate sampling and a subsequent protein assay. • 5. The diluted homogenate is stored on ice and assayed within one hour as below.
PARP Assay of Tumour/Tissue Samples • 1. ^32P 600 μM NAD solution is prepared fresh on the day of experiment as detailed above. Oligonucleotide stock is removed from storage and defrosted. • 2. Water bath is warmed to 26° C. and set to agitate at 70 oscillations per minute.
3. Reaction test tubes are set up as per table A for the QC samples and as per table B for the homogenate.
• 4. Each QC sample is assayed in triplicate, with T0, +oligo and −oligo samples ×3. (Total of 9 tubes per sample, if low cell counts −oligo samples are omitted.) Homogenates are also assayed in triplicate, with T0 and reaction samples ×3. (Total 6 tubes per sample). • 5. 2 ml ice cold 10% TCA+10% NaPPi is added to the T0 tubes prior to addition of homogenate or cells, to correct for non-specific binding of radio-label to the filter. • 6. Reaction test tubes homogenates and QC cells are warmed in the water bath to 26° C. for 7 minutes. • 7. Each preparation is vortexed briefly and the reaction is started by adding 300 μl of this to each reaction tube. • 8. The reaction is stopped exactly 6 minutes after addition of homogenate by adding 2 ml of ice cold 10% TCA+10% NaPPi and vortexing. • 9. The tube is then incubated on ice for at least one hour prior to filtration. • 10. […]

SW620 xenograft = assay: In vivo antitumor efficacy with irinotecan, SW620 xenograft; design: species or system mice
From the text: In no combination study was antagonism observed.

[1] = GI50 single agent/GI50 agent +0.4 μM compound of formula 1 as glucuronate salt
[2] = GI50 single agent/GI50 agent +0.4 μM Compound I (phosphate salt) instead of glucuronate salt

SMILES | PF50 (H460) (human H460 NSCLC cells; [1]) | also measured
O=c1[nH]cc(F)c(=O)[nH]1 [5-Fluorouracil] | 0.92 | 
Cn1nnc2c(C(N)=O)ncn2c1=O [Temozolomide, reference compound] |  | PARP Activity (%) (PARP): 100%; PF50 (H460) (human H460 NSCLC cells; [2]): 3.7^b
Nc1nc2nc[nH]c2c(=S)[nH]1 [6-thioguanine] | 1.1 | 
CCc1c2c(nc3ccc(OC(=O)N4CCC(N5CCCCC5)CC4)cc13)-c1cc3c(c(=O)n1C2)COC(=O)[C@]3(O)CC [irinotecan, reference compound] |  | inhibition of SW620 tumor growth as single agent (SW620 xenograft; irinotecan 25 mg/kg, QW×3 IP): did not significantly inhibit SW620 tumor growth; toxicity (SW620 xenograft; irinotecan single agent groups): No significant toxicity
COc1cc([C@@H]2c3cc4c(cc3[C@@H](O[C@@H]3O[C@@H]5CO[C@@H](C)O[C@H]5[C@H](O)[C@H]3O)[C@H]3COC(=O)[C@H]23)OCO4)cc(OC)c1O [Etoposide] |  | PF50 (H460) (human H460 NSCLC cells; [2]): 0.75^b
O=C1[O][Pt]2([NH][C@@H]3CCCC[C@H]3[NH]2)[O]C1=O [Oxaliplatin] |  | PF50 (H460) (human H460 NSCLC cells; [2]): 0.98^b
CCc1c2c(nc3ccc(O)cc13)-c1cc3c(c(=O)n1C2)COC(=O)[C@]3(O)CC [SN-38] | 2.2 | 
CC(=O)O[C@H]1C(=O)[C@@]2(C)[C@H]([C@H](OC(=O)c3ccccc3)[C@]3(O)C[C@H](OC(=O)[C@H](O)[C@@H](NC(=O)c4ccccc4)c4ccccc4)C(C)=C1C3(C)C)[C@]1(OC(C)=O)CO[C@@H]1C[C@@H]2O [Paclitaxel] | 0.77 | 
N.N.[Cl][Pt][Cl] [Cisplatin] | 1.2 | 
COc1cccc2c1C(=O)c1c(O)c3c(c(O)c1C2=O)C[C@@](O)(C(=O)CO)C[C@@H]3O[C@H]1C[C@H](N)[C@H](O)[C@H](C)O1 [Doxorubicin] | 1.1 | 
Nc1ccn([C@@H]2O[C@H](CO)[C@@H](O)C2(F)F)c(=O)n1 [Gemcitabine] | 1.2 | 
CC[C@@]1(O)C(=O)OCc2c1cc1n(c2=O)Cc2cc3c(CN(C)C)c(O)ccc3nc2-1 [Topotecan] | 1.6 | 
